Assay results published in patent US20240208992A1, “MACROCYCLES AS CFTR MODULATORS” (Idorsia Pharmaceuticals Ltd, priority 2021, published 2024).

Target: human F508del-CFTR (Homo sapiens, UniProt P13569, DEL508-508)
Assay: F508del-CFTR cell surface expression (corrector activity), DiscoveRx ß-galactosidase complementation chemiluminescence assay in recombinant U2OS cell line;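 also: U2OS cells co-expressing ProLink-tagged F508del-CFTR and a membrane-anchored enzyme acceptor, where more surface CFTR restores β-galactosidase activity measured by chemiluminescence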
Settings: for EC50: EC50, F508del-CFTR cell surface expression; for Emax: U2OS
[1] = U2OS cells, 16h compound incubation, geomean values
[2] = in relation to Emax of corrector lumacaftor (=100%), arithmetic mean values
[3] = U2OS cells, 16h compound incubation, geomean of several measurements
[4] = in relation to the Emax of the corrector lumacaftor (=100%), U2OS cells, 16h compound incubation, arithmetic mean
[5] = U2OS cell line, 16h compound incubation, geomean values
[6] = in relation to the Emax of the corrector lumacaftor (=100%), U2OS cell line, 16h compound incubation, arithmetic mean values

human F508del-CFTR, sequence (P13569 with tags, fused parts or gaps DEL508-508): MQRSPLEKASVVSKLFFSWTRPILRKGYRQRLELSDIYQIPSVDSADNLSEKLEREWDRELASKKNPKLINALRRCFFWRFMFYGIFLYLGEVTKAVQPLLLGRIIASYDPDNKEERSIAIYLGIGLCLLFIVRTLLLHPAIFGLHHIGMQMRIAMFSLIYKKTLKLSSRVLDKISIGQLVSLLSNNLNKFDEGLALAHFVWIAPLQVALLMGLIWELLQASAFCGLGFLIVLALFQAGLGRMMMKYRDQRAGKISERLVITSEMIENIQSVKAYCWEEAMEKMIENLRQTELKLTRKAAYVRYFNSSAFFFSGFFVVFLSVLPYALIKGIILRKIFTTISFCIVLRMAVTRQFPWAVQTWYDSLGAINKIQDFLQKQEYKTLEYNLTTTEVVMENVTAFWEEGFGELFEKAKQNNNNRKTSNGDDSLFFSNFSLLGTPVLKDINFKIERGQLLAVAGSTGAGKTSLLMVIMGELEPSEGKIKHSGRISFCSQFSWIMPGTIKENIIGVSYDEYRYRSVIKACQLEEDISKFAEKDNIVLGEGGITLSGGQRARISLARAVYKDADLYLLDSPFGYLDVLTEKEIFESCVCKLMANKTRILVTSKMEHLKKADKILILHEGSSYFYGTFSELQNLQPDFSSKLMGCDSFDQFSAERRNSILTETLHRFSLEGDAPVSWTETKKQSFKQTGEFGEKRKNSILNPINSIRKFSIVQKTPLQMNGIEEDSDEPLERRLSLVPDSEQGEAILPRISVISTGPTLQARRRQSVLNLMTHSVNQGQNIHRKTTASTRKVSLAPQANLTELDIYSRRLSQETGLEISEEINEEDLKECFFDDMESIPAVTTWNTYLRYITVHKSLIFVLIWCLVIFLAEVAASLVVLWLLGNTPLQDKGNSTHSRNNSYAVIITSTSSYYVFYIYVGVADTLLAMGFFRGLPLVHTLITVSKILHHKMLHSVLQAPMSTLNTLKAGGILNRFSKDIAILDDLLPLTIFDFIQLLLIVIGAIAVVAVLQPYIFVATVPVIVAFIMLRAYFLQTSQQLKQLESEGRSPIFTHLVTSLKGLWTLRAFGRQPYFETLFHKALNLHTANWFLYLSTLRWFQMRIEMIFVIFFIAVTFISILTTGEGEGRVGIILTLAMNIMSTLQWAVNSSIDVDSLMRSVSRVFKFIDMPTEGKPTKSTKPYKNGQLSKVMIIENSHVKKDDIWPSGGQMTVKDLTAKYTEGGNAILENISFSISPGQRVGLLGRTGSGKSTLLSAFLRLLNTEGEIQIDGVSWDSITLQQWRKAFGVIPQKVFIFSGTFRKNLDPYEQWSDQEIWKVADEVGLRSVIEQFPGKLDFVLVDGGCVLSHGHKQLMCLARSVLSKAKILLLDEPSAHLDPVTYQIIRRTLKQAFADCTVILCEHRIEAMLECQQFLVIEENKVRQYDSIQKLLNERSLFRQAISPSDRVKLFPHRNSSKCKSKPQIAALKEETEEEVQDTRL

| EC50 [1] [nM] | Emax [2] [%] | Compound | EC50 [5] [nM] | Emax [6] [%] | other results |
| --- | --- | --- | --- | --- | --- |
| 514 | 343 | COc1cc(CCNC(=O)[C@@H]2CC(=O)N(C)[C@@H](CC(C)C)C(=O)N(C)[C@H](C)C(=O)N[C@H](Cc3ccccc3)COc3cc(C)nc(OC)c3C(=O)N2)on1 [Example 772, (3R,6R,9S,13S)-3-benzyl-9-isobutyl-16-methoxy-N-(2-(3-methoxyisoxazol-5-yl)ethyl)-6,7,10,18-tetramethyl-5,8,11,15-tetraoxo-2,3,4,5,6,7,8,9,10,11,12,13,14,15-tetradecahydropyrido[3,4-p][1]oxa[4,7,10,14]tetraazacycloheptadecine-13-carboxamide] |  |  |  |
| 101 | 347 | Cc1cc(CCNC(=O)[C@@H]2CC(=O)N(C)[C@@H](CC(C)C)C(=O)N(C)[C@H](Cc3ccccc3)C(=O)N[C@H](Cc3ccccc3)COc3cnc4ccc(F)cc4c3C(=O)N2)on1 [Example 722, (3S,7S,10R,13R)-10,13-Dibenzyl-20-fluoro-7-isobutyl-6,9-dimethyl-N-(2-(3-methylisoxazol-5-yl)ethyl)-1,5,8,11-tetraoxo-1,2,3,4,5,6,7,8,9,10,11,12,13,14-tetradecahydro-[1]oxa[4,7,10,14]tetraazacycloheptadecino[17,16-c]quinoline-3-carboxamide] |  |  |  |
| 290 | 330 | Cc1cc(CCNC(=O)[C@@H]2CC(=O)N(C)[C@@H](CC(C)C)C(=O)N(C)C3(CC3)C(=O)N[C@H](Cc3ccccc3)COc3ccc4ccccc4c3C(=O)N2)on1 [Example 654, (3′S,7′S,13′R)-13′-benzyl-7′-isobutyl-6′,9′-dimethyl-N-(2-(3-methylisoxazol-5-yl)ethyl)-1′,5′,8′,11′-tetraoxo-2′,3′,4′,5′,6′,7′,8′,9′,11′,12′,13′,14′-dodecahydro-1′H-spiro[cyclopropane-1,10′-naphtho[1,2-p][1]oxa[4,7,10,14]tetraazacycloheptadecine]-3′-carboxamide] |  |  |  |
| 448 | 225 | CC(C)C[C@H]1C(=O)N2CCCC[C@@H]2C(=O)N[C@H](Cc2ccccc2)COc2cnc3ccc(F)cc3c2C(=O)N[C@H](C(=O)NCCc2ccc(-n3nccn3)cc2)CC(=O)N1C [Example 481, (9S,13S,19aR,22R)-N-(4-(2H-1,2,3-triazol-2-yl)phenethyl)-22-benzyl-5-fluoro-13-isobutyl-12-methyl-7,11,14,20-tetraoxo-7,8,9,10,11,12,13,14,17,18,19,19a,20,21,22,23-hexadecahydro-16H-pyrido[2′,1′:6,7][1]oxa[4,7,10,14]tetraazacycloheptadecino[17,16-c]quinoline-9-carboxamide] |  |  |  |

The next lines start with the compound.

| Compound | EC50 [1] [nM] | Emax [2] [%] | EC50 [5] [nM] | Emax [6] [%] | other results |
| --- | --- | --- | --- | --- | --- |
| Cc1cc(CCNC(=O)[C@@H]2CC(=O)N(C)[C@@H](CC(C)C)C(=O)N(CCC3CCCCC3)CC(=O)N[C@H](Cc3ccccc3)COc3ccc4nc(C)oc4c3C(=O)N2)on1 [Example 410, (8R,14S,18S)-8-benzyl-12-(2-cyclohexylethyl)-14-isobutyl-2,15-dimethyl-N-(2-(3-methylisoxazol-5-yl)ethyl)-10,13,16,20-tetraoxo-7,8,9,10,11,12,13,14,15,16,17,18,19,20-tetradecahydrooxazolo[4′,5′:5,6]benzo[1,2-p][1]oxa[4,7,10,14]tetraazacycloheptadecine-18-carboxamide] | 129 | 269 |  |  |  |
| COc1nccc2c1C(=O)N[C@H](C(=O)NCCc1cc(C)no1)CC(=O)N(C)[C@@H](CC(C)C)C(=O)N(C)[C@H](CCOc1ccccc1)C(=O)N[C@H](Cc1ccccc1)CO2 [Example 855, (3R,6R,9S,13S)-3-benzyl-9-isobutyl-16-methoxy-7,10-dimethyl-N-(2-(3-methylisoxazol-5-yl)ethyl)-5,8,11,15-tetraoxo-6-(2-phenoxyethyl)-2,3,4,5,6,7,8,9,10,11,12,13,14,15-tetradecahydropyrido[3,4-p][1]oxa[4,7,10,14]tetraazacycloheptadecine-13-carboxamide] |  |  |  |  | EC50 [3]: 80 nM; Emax [4]: 341% |
| CCOCC[C@@H]1C(=O)N[C@H](Cc2ccccc2)COc2ccc3ncc(F)cc3c2C(=O)N[C@H](C(=O)NCCc2nc(C3CC3)no2)CC(=O)N(C)[C@@H](CC(C)C)C(=O)N1C [Example 976, (3S,7S,10R,13R)-13-Benzyl-N-(2-(3-cyclopropyl-1,2,4-oxadiazol-5-yl)ethyl)-10-(2-ethoxyethyl)-20-fluoro-7-isobutyl-6,9-dimethyl-1,5,8,11-tetraoxo-1,2,3,4,5,6,7,8,9,10,11,12,13,14-tetradecahydro-[1]oxa[4,7,10,14]tetraazacycloheptadecino[16,17-f]quinoline-3-carboxamide] |  |  |  |  | EC50 [3]: 179 nM; Emax [4]: 348% |
| COc1cccc(CCNC(=O)[C@@H]2CC(=O)N(C)[C@@H](CC(C)C)C(=O)N(CCC3CCCCC3)CC(=O)N[C@H](Cc3ccccc3)COc3cccc(OC)c3C(=O)N2)c1 [Example 199, (3R,9S,13S)-3-benzyl-7-(2-cyclohexylethyl)-9-isobutyl-16-methoxy-N-(3-methoxyphenethyl)-10-methyl-5,8,11,15-tetraoxo-2,3,4,5,6,7,8,9,10,11,12,13,14,15-tetradecahydrobenzo[p][1]oxa[4,7,10,14]tetraazacycloheptadecine-13-carboxamide] |  |  | 230 | 214 |  |
| COc1cccc(CCNC(=O)[C@@H]2CC(=O)N(C)[C@@H](CC(C)C)C(=O)N3CCCC[C@H]3C(=O)N[C@H](Cc3ccccc3)COc3ccc4ncoc4c3C(=O)N2)c1 [Example 342, (8S,12S,18aS,21R)-21-benzyl-12-isobutyl-N-(3-methoxyphenethyl)-11-methyl-6,10,13,19-tetraoxo-6,7,8,9,10,11,12,13,16,17,18,18a,19,20,21,22-hexadecahydro-15H-oxazolo[4′,5′:5,6]benzo[1,2-p]pyrido[2,1-f][1]oxa[4,7,10,14]tetraazacycloheptadecine-8-carboxamide] |  |  | 464 | 128 |  |
| CC(C)C[C@H]1C(=O)N(C)C2(CC(F)(F)C2)C(=O)N[C@H](Cc2ccccc2)COc2cnc3ccc(F)cc3c2C(=O)N[C@H](C(=O)NCCn2nnc(C3CC3)n2)CC(=O)N1C [Example 838, (3′S,7′S,13′R)-13′-benzyl-N-(2-(5-cyclopropyl-2H-tetrazol-2-yl)ethyl)-3,3,20′-trifluoro-7′-isobutyl-6′,9′-dimethyl-1′,5′,8′,11′-tetraoxo-2′,3′,4′,5′,6′,7′,8′,9′,11′,12′,13′,14′-dodecahydro-1′H-spiro[cyclobutane-1,10′-[1]oxa[4,7,10,14]tetraazacycloheptadecino[17,16-c]quinoline]-3′-carboxamide] |  |  |  |  | EC50 [3]: 118 nM; Emax [4]: 358% |
| [2H]C([2H])([2H])Oc1nc(C)cc2c1C(=O)N[C@H](C(=O)NCCc1noc(C3CC3)n1)CC(=O)N(C)[C@@H](CC(C)C)C(=O)N1CCCC[C@@H]1C(=O)N[C@H](Cc1ccccc1)CO2 [Example 666, (7S,11S,17aR,20R)-20-benzyl-N-(2-(5-cyclopropyl-1,2,4-oxadiazol-3-yl)ethyl)-11-isobutyl-4-(methoxy-d3)-2,10-dimethyl-5,9,12,18-tetraoxo-5,6,7,8,9,10,11,12,15,16,17,17a,18,19,20,21-hexadecahydro-14H-dipyrido[2,1-f:3′,4′-p][1]oxa[4,7,10,14]tetraazacycloheptadecine-7-carboxamide] | 484 | 311 |  |  |  |
| COc1cccc2c1C(=O)N[C@H](C(=O)NCCc1ccc3c(c1)OCO3)CC(=O)N(C)[C@@H](CC1CCCC1)C(=O)N(C[C@@H]1CCCCO1)CC(=O)N[C@H](Cc1ccccc1)CO2 [Example 308, (3R,9S,13S)-N-(2-(benzo[d][1,3]dioxol-5-yl)ethyl)-3-benzyl-9-(cyclopentylmethyl)-16-methoxy-10-methyl-5,8,11,15-tetraoxo-7-(((S)-tetrahydro-2H-pyran-2-yl)methyl)-2,3,4,5,6,7,8,9,10,11,12,13,14,15-tetradecahydrobenzo[p][1]oxa[4,7,10,14]tetraazacycloheptadecine-13-carboxamide] |  |  | 469 | 103 |  |
| COc1cccc(CCNC(=O)[C@@H]2CC(=O)N(C)[C@@H](CC(C)C)C(=O)N3CCOC[C@@H]3C(=O)N[C@H](Cc3ccccc3)COc3ccc4ccccc4c3C(=O)N2)c1 [Example 222, (4aR,7R,18S,22S)-7-Benzyl-22-isobutyl-N-(3-methoxyphenethyl)-21-methyl-5,16,20,23-tetraoxo-1,2,4,4a,5,6,7,8,16,17,18,19,20,21,22,23-hexadecahydronaphtho[1,2-p][1,4]oxazino[3,4-f][1]oxa[4,7,10,14]tetraazacycloheptadecine-18-carboxamide] |  |  | 216 | 249 |  |
| CC(C)C[C@H]1C(=O)N(C)CC(=O)N[C@H](Cc2ccccc2)COc2cc3c(cc2C(=O)N[C@H](C(=O)NCCc2ccc4c(c2)OCO4)CC(=O)N1C)OCO3 [Example 223, (7R,13S,17S)-N-(2-(benzo[d][1,3]dioxol-5-yl)ethyl)-7-benzyl-13-isobutyl-11,14-dimethyl-9,12,15,19-tetraoxo-6,7,8,9,10,11,12,13,14,15,16,17,18,19-tetradecahydro-[1,3]dioxolo[4′,5′:4,5]benzo[1,2-p][1]oxa[4,7,10,14]tetraazacycloheptadecine-17-carboxamide] |  |  | 388 | 141 |  |
| COc1cccc(CCNC(=O)[C@@H]2CC(=O)N(C)[C@@H](CC(C)C)C(=O)N3CCN(C4CCC4)C[C@H]3C(=O)N[C@H](Cc3ccccc3)COc3cnc4ccccc4c3C(=O)N2)c1 [Example 390, (9S,13S,19aS,22R)-22-benzyl-18-cyclobutyl-13-isobutyl-N-(3-methoxyphenethyl)-12-methyl-7,11,14,20-tetraoxo-7,8,9,10,11,12,13,14,17,18,19,19a,20,21,22,23-hexadecahydro-16H-pyrazino[2′,11:6,7][1]oxa[4,7,10,14]tetraazacycloheptadecino[17,16-c]quinoline-9-carboxamide] |  |  | 269 | 188 |  |
